Test results reported in PubChem BioAssay (NCI).
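Growth conditions: 96-well plates. Treatment: test compound, 48 hours, 5 concentrations. Analysis: linear interpolation between bracketing concentrations; unreached endpoints set to highest concentration. GI50 = concentration required for 50% inhibition of growth. Definition used: TGI = concentration required for complete inhibition of growth.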

How the values were obtained:
Test in all cases: DTP human tumour cell line panel, 48 h
CAKI-1 renal = test system: CAKI-1 renal
LOX IMVI melanoma = test system: LOX IMVI melanoma
MALME-3M melanoma = test system: MALME-3M melanoma
MDA-MB-435 = test system: MDA-MB-435
PC-3 prostate = test system: PC-3 prostate
UACC-257 melanoma = test system: UACC-257 melanoma
SF-295 CNS = test system: SF-295 CNS
NCI/ADR-RES ovarian = test system: NCI/ADR-RES ovarian
NCI-H226 lung = test system: NCI-H226 lung
HS 578T breast = test system: HS 578T breast
NCI-H23 lung = test system: NCI-H23 lung
HT29 colon = test system: HT29 colon
NCI-H522 lung = test system: NCI-H522 lung
SK-OV-3 ovarian = test system: SK-OV-3 ovarian
M14 melanoma = test system: M14 melanoma
HCT-116 colon = test system: HCT-116 colon
SK-MEL-2 melanoma = test system: SK-MEL-2 melanoma
U251 CNS = test system: U251 CNS
UACC-62 melanoma = test system: UACC-62 melanoma
RXF 393 renal = test system: RXF 393 renal
NCI-H460 lung = test system: NCI-H460 lung
786-0 renal = test system: 786-0 renal
SF-539 CNS = test system: SF-539 CNS
SK-MEL-28 melanoma = test system: SK-MEL-28 melanoma
SF-268 CNS = test system: SF-268 CNS
SK-MEL-5 melanoma = test system: SK-MEL-5 melanoma
KM12 colon = test system: KM12 colon
CCRF-CEM leukemia = test system: CCRF-CEM leukemia
T-47D breast = test system: T-47D breast
COLO 205 colon = test system: COLO 205 colon
MDA-MB-231 breast = test system: MDA-MB-231 breast
SNB-19 CNS = test system: SNB-19 CNS
HCT-15 colon = test system: HCT-15 colon
MOLT-4 leukemia = test system: MOLT-4 leukemia
OVCAR-8 ovarian = test system: OVCAR-8 ovarian
UO-31 renal = test system: UO-31 renal
K-562 leukemia = test system: K-562 leukemia
IGROV1 ovarian = test system: IGROV1 ovarian
OVCAR-4 ovarian = test system: OVCAR-4 ovarian
A498 renal = test system: A498 renal
SN12C renal = test system: SN12C renal
ACHN renal = test system: ACHN renal
MCF7 breast = test system: MCF7 breast
SNB-75 CNS = test system: SNB-75 CNS
OVCAR-5 ovarian = test system: OVCAR-5 ovarian
RPMI-8226 leukemia = test system: RPMI-8226 leukemia
OVCAR-3 ovarian = test system: OVCAR-3 ovarian
SW-620 colon = test system: SW-620 colon
BT-549 breast = test system: BT-549 breast
DU-145 prostate = test system: DU-145 prostate
EKVX NSCLC = test system: EKVX NSCLC
HOP-62 NSCLC = test system: HOP-62 NSCLC
TK-10 renal = test system: TK-10 renal
A549 NSCLC = test system: A549 NSCLC
HCC-2998 colon = test system: HCC-2998 colon

Work on COc1cc([N+](=O)[O-])cc2c3c(n(C)c12)[C@@]1(C)CCC2c4ccc(OCc5ccccc5)cc4CCC2C1C3 (stereo not given in full) yielded a GI50 (CAKI-1 renal) of 86.6 µM, a TGI (CAKI-1 renal) of over 100 µM and a GI50 (LOX IMVI melanoma) of 65 µM. For the same compound, the TGI (LOX IMVI melanoma) was over 100 µM, the GI50 (MALME-3M melanoma) was over 100 µM and the TGI (MALME-3M melanoma) was over 100 µM. For the same compound, the GI50 (MDA-MB-435) was over 100 µM, the TGI (MDA-MB-435) was over 100 µM and the GI50 (PC-3 prostate) was over 100 µM. It also gave a TGI (PC-3 prostate) of over 100 µM, a GI50 (UACC-257 melanoma) of 85.6 µM and a TGI (UACC-257 melanoma) of over 100 µM. The GI50 (SF-295 CNS) was 35 µM, the TGI (SF-295 CNS) was over 100 µM and the GI50 (NCI/ADR-RES ovarian) was over 100 µM. It also gave a TGI (NCI/ADR-RES ovarian) of over 100 µM, a GI50 (NCI-H226 lung) of 80.4 µM and a TGI (NCI-H226 lung) of over 100 µM. For the same compound, the GI50 (HS 578T breast) was over 100 µM, the TGI (HS 578T breast) was over 100 µM and the GI50 (NCI-H23 lung) was 68.8 µM. It also gave a TGI (NCI-H23 lung) of over 100 µM, a GI50 (HT29 colon) of 17.7 µM and a TGI (HT29 colon) of 42.8 µM. The GI50 (NCI-H522 lung) was 53.6 µM, the TGI (NCI-H522 lung) was over 100 µM and the GI50 (SK-OV-3 ovarian) was 54.5 µM. It also gave a TGI (SK-OV-3 ovarian) of over 100 µM, a GI50 (M14 melanoma) of over 100 µM and a TGI (M14 melanoma) of over 100 µM. For the same compound, the GI50 (HCT-116 colon) was 78.5 µM, the TGI (HCT-116 colon) was over 100 µM and the GI50 (SK-MEL-2 melanoma) was over 100 µM. It also gave a TGI (SK-MEL-2 melanoma) of over 100 µM, a GI50 (U251 CNS) of 37.5 µM and a TGI (U251 CNS) of over 100 µM. For the same compound, the GI50 (UACC-62 melanoma) was over 100 µM, the TGI (UACC-62 melanoma) was over 100 µM and the GI50 (RXF 393 renal) was 40.8 µM. For the same compound, the TGI (RXF 393 renal) was over 100 µM, the GI50 (NCI-H460 lung) was 90.1 µM and the TGI (NCI-H460 lung) was over 100 µM. The GI50 (786-0 renal) was over 100 µM, the TGI (786-0 renal) was over 100 µM and the GI50 (SF-539 CNS) was 66.7 µM. For the same compound, the TGI (SF-539 CNS) was over 100 µM, the GI50 (SK-MEL-28 melanoma) was over 100 µM and the TGI (SK-MEL-28 melanoma) was over 100 µM. The GI50 (SF-268 CNS) was over 100 µM, the TGI (SF-268 CNS) was over 100 µM and the GI50 (SK-MEL-5 melanoma) was 78.9 µM. The TGI (SK-MEL-5 melanoma) was over 100 µM, the GI50 (KM12 colon) was over 100 µM and the TGI (KM12 colon) was over 100 µM. It also gave a GI50 (CCRF-CEM leukemia) of over 100 µM, a TGI (CCRF-CEM leukemia) of over 100 µM and a GI50 (T-47D breast) of 43.1 µM. The TGI (T-47D breast) was over 100 µM, the GI50 (COLO 205 colon) was 29.3 µM and the TGI (COLO 205 colon) was over 100 µM. The GI50 (MDA-MB-231 breast) was 62.6 µM, the TGI (MDA-MB-231 breast) was over 100 µM and the GI50 (SNB-19 CNS) was 46.5 µM. For the same compound, the TGI (SNB-19 CNS) was over 100 µM, the GI50 (HCT-15 colon) was 53.5 µM and the TGI (HCT-15 colon) was over 100 µM. For the same compound, the GI50 (MOLT-4 leukemia) was over 100 µM, the TGI (MOLT-4 leukemia) was over 100 µM and the GI50 (OVCAR-8 ovarian) was over 100 µM. For the same compound, the TGI (OVCAR-8 ovarian) was over 100 µM, the GI50 (UO-31 renal) was over 100 µM and the TGI (UO-31 renal) was over 100 µM. The GI50 (K-562 leukemia) was 62.5 µM, the TGI (K-562 leukemia) was over 100 µM and the GI50 (IGROV1 ovarian) was over 100 µM. It also gave a TGI (IGROV1 ovarian) of over 100 µM, a GI50 (OVCAR-4 ovarian) of 61.6 µM and a TGI (OVCAR-4 ovarian) of over 100 µM. The GI50 (A498 renal) was 35.6 µM, the TGI (A498 renal) was over 100 µM and the GI50 (SN12C renal) was over 100 µM. It also gave a TGI (SN12C renal) of over 100 µM, a GI50 (ACHN renal) of over 100 µM and a TGI (ACHN renal) of over 100 µM. The GI50 (MCF7 breast) was over 100 µM, the TGI (MCF7 breast) was over 100 µM and the GI50 (SNB-75 CNS) was 23.9 µM. For the same compound, the TGI (SNB-75 CNS) was 63.9 µM, the GI50 (OVCAR-5 ovarian) was over 100 µM and the TGI (OVCAR-5 ovarian) was over 100 µM. It also gave a GI50 (RPMI-8226 leukemia) of 81.8 µM, a TGI (RPMI-8226 leukemia) of over 100 µM and a GI50 (OVCAR-3 ovarian) of over 100 µM. For the same compound, the TGI (OVCAR-3 ovarian) was over 100 µM, the GI50 (SW-620 colon) was 90.6 µM and the TGI (SW-620 colon) was over 100 µM. It also gave a GI50 (BT-549 breast) of over 100 µM, a TGI (BT-549 breast) of over 100 µM and a GI50 (DU-145 prostate) of over 100 µM. The TGI (DU-145 prostate) was over 100 µM, the GI50 (EKVX NSCLC) was 68.5 µM and the TGI (EKVX NSCLC) was over 100 µM. The GI50 (HOP-62 NSCLC) was 43.7 µM, the TGI (HOP-62 NSCLC) was over 100 µM and the GI50 (TK-10 renal) was 86 µM. The TGI (TK-10 renal) was over 100 µM, the GI50 (A549 NSCLC) was 72.2 µM and the TGI (A549 NSCLC) was over 100 µM. For the same compound, the GI50 (HCC-2998 colon) was 47.9 µM and the TGI (HCC-2998 colon) was over 100 µM.
